The subject of experiment [1] is HepG2 (human hepatocellular carcinoma). Put plainly: MTS cytotoxicity test, HepG2. As to conditions: HepG2 (liver), read-out: EC50 (concentration where half of the cells died, MTS test). It is filed as cell-based. Here is the method: (§1) In our experiment, HepG2 and Hep3B (human hepatocellular carcinoma), SUM149PT (human breast tumour), K562 (human erythroblastic leukaemia, U87 (human glioma), CCRF-CEM (human leukaemia) cell cultures were used; these were grown in the following medium: U87, CCRF-CEM; Dulbecco's Modified Eagle Medium (D-MEM) (high glucose) (Gibco BRL, Carlsbad, Calif., USA), penicillin (50 IU/ml-streptomycin ([…]), 10% foetal cattle serum.
(§2) 1:1 mixture of HepG2, Hep3B, SUM149PT: Dulbecco's Modified Eagle Medium (D-MEM) (high glucose) (Gibco BRL, Carlsbad, Calif., USA) and Nutrient Mixture F-12 Ham (Sigma, St. Louis, Mo., USA), penicillin (50 IU/ml)-streptomycin ([…]), 10% foetal cattle serum.
(§3) The cells were placed into 96-well microtitration plates (10 000 cells/well), and after 24 hours the cells were incubated with the various substances. After incubation MTS test (3-(4,5-dimethylthiazol-2-yl)-5-(3-carboxymethoxyphenyl)-2-(4-sulphophenyl)-2H-tetrazolium) (Promega, Madison, Wis., USA) was conducted adding it in a final concentration of 0.5 mg/ml to the cells, which were then incubated at 37° C. for 1 hour. The cells were washed with PBS and the formazan dye was dissolved in isopropanol. The amount of the formazan dye transformed was measured by means of a Powerwave reader (Biotek, Winooski, Vt.) at 570 nm; background measurement 690 nm. The calibration curve was obtained in such a way that the capacity of the serial dilutions of the cells to transform MTS was measured and the viable cell count was calculated using Gen5 software.
(§4) In the table the EC50 values of each substance is presented (the concentration where half of the cells died based on the results of the MTS test).
On the technique in general: Tetrazolium assays rely on reduction of a dye to a coloured formazan, in cell work by metabolically active cells.

Experiment [2] deals with K562 (human erythroblastic leukaemia). Put plainly: MTS cytotoxicity test, K562. The format is cell-based. The following applies: read-out: EC50 (concentration where half of the cells died, MTS test). Here is the method:
as §1, §3, §4

Experiment [3] deals with CCRF-CEM (human leukaemia). The experiment can be described thus: MTS cytotoxicity test, CCRF-CEM. The following applies: read-out: EC50 (concentration where half of the cells died, MTS test). It is filed as cell-based. Here is the method:
as §1
CCRF-CEM: RPMI Media 1640 (Gibco BRL, Carlsbad, Calif., USA), penicillin (50 IU/ml-streptomycin ([…]), 10% foetal cattle serum.
as §3, §4

For experiment [4], the system named is Hep3B (human hepatocellular carcinoma). Put plainly: MTS cytotoxicity test, Hep3B. The format is cell-based. As to conditions: Hep3B (liver), read-out: EC50 (concentration where half of the cells died, MTS test). Here is the method:
as §1, §2, §3, §4

The next experiment concerns U87 (human glioma). Put plainly: MTS cytotoxicity test, U87. The following applies: U-87 MG, read-out: EC50 (concentration where half of the cells died, MTS test). It is filed as cell-based. Here is the method: as §1, §3, §4
For experiment [5], the system named is SUM149PT (human breast tumour). The experiment can be described thus: MTS cytotoxicity test, SUM149PT. It is filed as cell-based. As to conditions: read-out: EC50 (concentration where half of the cells died, MTS test). Here is the method:
as §1, §2, §3, §4

Experiment [6] addresses T1, Matrix metalloproteinase 2 (MMP-2, 72 kDa gelatinase) (Rattus norvegicus, UniProt P33436).
T1 construct: endogenous in cells; host or cells: H9c2 rat embryonic myocardial cells (culture supernatant)
T1 sequence (P33436 110-662): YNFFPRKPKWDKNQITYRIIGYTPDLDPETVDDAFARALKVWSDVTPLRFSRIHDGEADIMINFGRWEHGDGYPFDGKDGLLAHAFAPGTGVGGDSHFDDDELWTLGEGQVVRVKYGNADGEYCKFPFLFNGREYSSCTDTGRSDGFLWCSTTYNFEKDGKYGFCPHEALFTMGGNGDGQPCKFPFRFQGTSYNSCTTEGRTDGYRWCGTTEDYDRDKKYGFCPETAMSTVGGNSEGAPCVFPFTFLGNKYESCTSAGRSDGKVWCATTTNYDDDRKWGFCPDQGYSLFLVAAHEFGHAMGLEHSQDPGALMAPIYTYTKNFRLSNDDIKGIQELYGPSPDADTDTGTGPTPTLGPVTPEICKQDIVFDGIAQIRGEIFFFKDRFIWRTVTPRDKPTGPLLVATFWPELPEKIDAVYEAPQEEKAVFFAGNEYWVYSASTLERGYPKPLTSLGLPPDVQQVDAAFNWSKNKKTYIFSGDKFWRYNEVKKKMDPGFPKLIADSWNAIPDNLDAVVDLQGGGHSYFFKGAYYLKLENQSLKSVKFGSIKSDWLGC
The experiment can be described thus: Gelatinase activity in gel after electrophoresis of H9c2 supernatant (MMP-2). It is filed as biochemical. As to conditions: 30 uM, substance present during incubation of the gel. Here is the method: (§5) H9c2 rat embryonic myocardial cells (from ATCC, Rockville, Md., USA) were grown in Dulbecco's modified eagle's medium containing 10% cattle serum, 4 mM L-glutamine (Sigma-Aldrich, Hungary), 100 IU/ml penicillin and 100 ug/ml streptomycin.

In experiment [7] the target is T2, Matrix metalloproteinase 9 (MMP-9, 92 kDa gelatinase) (Rattus norvegicus, UniProt P50282).
T2 construct: endogenous in cells; host or cells: H9c2 rat embryonic myocardial cells (culture supernatant)
The experiment can be described thus: Gelatinase activity in gel after electrophoresis of H9c2 supernatant (MMP-9). It is filed as biochemical. As to conditions: 30 uM, substance present during incubation of the gel. Here is the method: as §5

For another experiment, the system named is Lewis rats. Put plainly: Heterotopic heart transplantation, reperfusion injury. The format is in vivo, rat. The following applies: 3 mg/kg. Here is the method:
A heterotropic heart transplant experiment model was performed in a way described earlier (Poly(ADP-Ribose): inhibition of polymerase reduces the reperfusion injury occurring after heart transplantation (Szabó et al. 2002) , Briefly: the donor hearts were transplanted from Lewis rats. After ischemic protection performed at 4° C. for 1 hour, the hearts were implanted intraabdominally via anastomising the aorta and the pulmonary artery of the donor heart with the abdominal aorta or vena cava of the recipient rat. Care of all animals was performed by people in line with the requirements of “Principles of Laboratory Animal Care”; National Society of Medical Research, and the Guide for the Care and Use of Laboratory Animals prepared by the National Academy of Sciences; publisher: National Institutes of Health (NIH Publication No. 86-23, revised 1996).
The functional measurements of the transplant were carried out as follows: the left ventricular systolic pressure (LVSP), left ventricular end diastolic pressure (LVEDP), rate of the change of blood pressure (dP/dt) and relaxation time constant (TE) were measured by means of a Millar micromanometer (Millar Instruments, Inc.), with different LV, using an intraventricular ballon. The total coronary blood flow (CBF) was measured on the donor aorta with perivascular ultrasonic flow sample. After determination of the baseline, the endothelium-dependent vasodilator acetylcholine (ACH, 1 nmol/l, 0.2 ml) and bradykinin (BK 0.1 nmol/l, 0.2 ml), and the endothelium-independent vasodilator sodium nitroprussid (SNP, 10 nmol/l, 0.2 ml) were added directly into the coronary arteries of the transplant through the donor aorta. Between the infusions, CBP was allowed to return to the baseline level. The vasodilator response was expressed as the maximum percentage change of CBF from the baseline.
Two transplant groups were studied (n=6/in each group). Just before loosening the aorta clamp, slow injection of common salt solution (control group) or the compound according to Example 1 (3 mg/kg) was started and it was continued during the first 5 minutes of the reperfusion period.
Measurement of the systolic and diastolic function and CBF in group A (control) and group B (compound according to Example 1) was performed 1 hour after reperfusion.

The next experiment deals with Wistar rats. Put plainly: Forced swimming test. The format is in vivo, rat. The following applies: 30 mg/kg, previous experiments. Here is the method: Wistar rats received from Charles River Laboratories (Budapest, Hungary) were used as test animals. App. 2 month rats were used (200-300 g body weight). The animals were conditioned for app. 1 week. The animals received standard laboratory food (Charles River Laboratories, Budapest, Hungary) and tap water ad libitum. The temperature and humidity were kept at 22±2° C. and 60±10%, respectively. The rats were kept in groups of 5 in 45×35×25 cm Makrolon cages. Day/night cycles of 12 hours were used; the light was switched off at 19:00. The experiments were conducted in the daylight period. The experiments were conducted in accordance with the European Communities Council Directive of 24 Nov. 1985 (86/609/EEC, according to the control and approval of the Animal Welfare Committee of the Institute of Experimental Medicine).
Rats were forced to swim twice as described in the following publication: Porsolt et al., 1978. On the first day every rat was placed in a 15 cm wide, 35 cm high glass cylinder filled with water to 30 cm. […] Behaviour of the animals was recorded by a video camera located 2 meters from the cylinders. The following behaviour factors were recorded: struggling (the animal tries to leave the cylinder by climbing on the walls); swimming (swimming round in the cylinder) and floating (the animal makes only the movements necessary to keep its head above the wafer). […]

The mark [8] stands for this setting: after 60 minute reperfusion, vs control.

The results in this text go back to patent US8871937B2, “8-hydroxy-quinoline derivatives” (“AVIDIN” Kutato, Fejleszto es Kereskedelmi Korlatolt …, priority 2010, dated 2014).

pEC50: −log10 of the molar value.

T2 sequence (P50282 108-708): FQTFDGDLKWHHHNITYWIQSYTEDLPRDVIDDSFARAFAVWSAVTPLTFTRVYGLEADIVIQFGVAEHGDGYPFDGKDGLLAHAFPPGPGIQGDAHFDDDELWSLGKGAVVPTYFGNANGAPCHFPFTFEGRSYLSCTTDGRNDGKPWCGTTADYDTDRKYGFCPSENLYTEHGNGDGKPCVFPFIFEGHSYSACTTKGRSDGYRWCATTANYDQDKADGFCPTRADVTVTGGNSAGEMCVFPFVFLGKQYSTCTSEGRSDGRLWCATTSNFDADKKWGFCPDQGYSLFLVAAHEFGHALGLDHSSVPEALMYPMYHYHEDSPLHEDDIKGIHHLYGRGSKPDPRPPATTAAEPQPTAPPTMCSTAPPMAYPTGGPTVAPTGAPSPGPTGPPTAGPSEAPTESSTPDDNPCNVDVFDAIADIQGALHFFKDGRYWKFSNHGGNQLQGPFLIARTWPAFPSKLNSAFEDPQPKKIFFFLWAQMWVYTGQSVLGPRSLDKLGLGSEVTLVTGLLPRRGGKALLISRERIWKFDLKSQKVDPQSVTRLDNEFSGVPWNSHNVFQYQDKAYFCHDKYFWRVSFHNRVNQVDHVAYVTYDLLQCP

As to `Cc1ccnc(NC(c2ccccc2O)c2ccc3cccnc3c2O)n1` (stereo not shown) [Example 11, 7-[(2-hydroxyphenyl)-(4-methyl-pyrimidin-2-ylamino)-methyl]-quinolin-8-ol], the pEC50 in experiment [1] is 6.00; in experiment [2], 5.30.
In the case of `Cc1cccc(NC(c2ccc(C(F)(F)F)cc2)c2ccc3cccnc3c2O)n1` (stereo not shown) [Example 7, 7-[(6-methyl-pyridin-2-ylamino)-(4-trifluoromethyl-phenyl)-methyl]-quinolin-8-ol], the pEC50 is 6.52 in experiment [3], 5.30 in experiment [4], 6.30 in experiment [1] and 4.82 in experiment [2].
With `CCOC(=O)c1ccc(NC(c2ccc([N+](=O)[O-])cc2)c2ccc3cccnc3c2O)cc1` (stereo not shown) [Example 2, Ethyl 4-((8-hydroxyquinolin-7-yl) (4-nitrophenyl)methylamino)benzoate], the pEC50 was 6.00 in experiment [3], 5.30 in experiment [4], 5.60 in [1] and 5.40 in the experiment with U87 (human glioma).
As for `Oc1c(C(Nc2ccc(C(F)(F)F)cc2)c2ccccn2)ccc2cccnc12` (stereo not shown) [Example 5, 7-[pyridin-2-yl-(4-trifluoromethyl-phenylamino)-methyl]-quinolin-8-ol], the pEC50 in [3] is 7.00; in [4], 5.70; in experiment [1], 5.70; in the experiment with U87 (human glioma) it was 5.46.
Turning to `Cc1cccc(NC(c2ccc(F)c(F)c2)c2ccc3cccnc3c2O)n1` (stereo not shown) [Example 16, 7-((6-methylpyridin-2-ylamino) (3,4-difluorophenyl)methyl)quinolin-8-ol], the pEC50 was 5.30 in experiment [1], 5.82 in experiment [2] and 5.60 in the experiment with U87 (human glioma).
Turning to `Cc1ccnc(NC(c2ccc(C(F)(F)F)cc2)c2ccc3cccnc3c2O)c1` (stereo not shown) [Example 8, 7-[(4-methyl-pyridin-2-ylamino)-(4-trifluoromethylphenyl)-methyl]-quinolin-8-ol], the pEC50 in experiment [2] is 5.10; in [5], 5.00.
As to `Cc1ccnc(NC(c2ccc(C(F)(F)F)cc2)c2ccc3cccnc3c2O)n1` (stereo not shown) [Example 10, 7-((4-methylpyrimidin-2-ylamino) (4-(trifluoromethyl)phenyl)methyl)quinolin-8-ol], the pEC50 in [1] was 6.00; in experiment [2], 5.15; in [5], 5.30; in the experiment on U87 (human glioma) it was 5.30.
Regarding `Cc1cccc(NC(c2ccc(C(F)(F)F)cc2F)c2ccc3cccnc3c2O)n1` (stereo not shown) [7-((6-methylpyridin-2-ylamino)(2-fluoro-4-(trifluoromethyl)phenyl)methyl)quinolin-8-ol], the figures for the pEC50 (in experiment [1]; in experiment [2]; with U87 (human glioma)) were 6.00, 5.82 and 5.60, respectively.
Consider `Cc1cccc(NC(c2ccc([N+](=O)[O-])cc2)c2ccc3cccnc3c2O)n1` (stereo not shown) [Example 1, 7-((6-methylpyridin-2-ylamino) (4-nitrophenyl)methyl)quinolin-8-ol], for which the “inhibition of 72 kDa gelatinase (MMP-2)” value in [6] is on record as “completely inhibited”. Moreover, the “inhibition of 92 kDa gelatinase (MMP-9)” value in [7] is reported as “inhibited the 92 kDa gelatinase (MMP-9) as well, hut to a less extent than the 72 kDa gelatinase”. Further, the “LVEDP (left ventricular end diastolic pressure)” value with Lewis rats (setting [8]) is reported as “did not show changing values between the groups”. The “LVSP (left ventricular systolic pressure)” value with Lewis rats (setting [8]) was “significantly (P=0.05) higher”. Moreover, the “peak positive dP/dt” value in the experiment on Lewis rats (setting [8]) was “significantly (P=0.05) higher”. Moreover, the systolic functional recovery result in the experiment on Lewis rats (setting [8]) is on record as “significantly better”. For the same molecule, the “reperfusion injury after heart transplantation” value in the experiment with Lewis rats (injection at start of reperfusion) is “Reduces Reperfusion Injury”. Further, the “systolic heart function curves” value with Lewis rats (vs group treated with the carrier (FIG. 1a, 1b)) was “significant drift to the left”. For the same molecule, the pEC50 in [3] was 6.00; in experiment [1], 6.30; in experiment [2] it was 6.00; in experiment [5], 5.00; in the experiment on U87 (human glioma) it was 5.60.
`CN(C)CCCN1c2ccccc2CCc2ccccc21` [impipramine, imipramine]: in the experiment with Wistar rats, the “floating in forced swimming test” value is on record as “reliably reduced floating”.
